From US20210179578A1, “OX1 ANTAGONISTS” (Heptares Therapeutics Limited, priority 2017, published 2021)

What was measured:
[1] = molecular target: T1, human OX1 receptor (Homo sapiens, UniProt O43613); assay: IPone accumulation assay, CHO cells expressing OX1 (antagonism of orexin A); type: cell-based; details: IPone accumulation, CHO human OX1, orexin A EC80 challenge (~20 nM); read-out: fpKb average OX1 (converted)
T1 sequence (O43613 1-425): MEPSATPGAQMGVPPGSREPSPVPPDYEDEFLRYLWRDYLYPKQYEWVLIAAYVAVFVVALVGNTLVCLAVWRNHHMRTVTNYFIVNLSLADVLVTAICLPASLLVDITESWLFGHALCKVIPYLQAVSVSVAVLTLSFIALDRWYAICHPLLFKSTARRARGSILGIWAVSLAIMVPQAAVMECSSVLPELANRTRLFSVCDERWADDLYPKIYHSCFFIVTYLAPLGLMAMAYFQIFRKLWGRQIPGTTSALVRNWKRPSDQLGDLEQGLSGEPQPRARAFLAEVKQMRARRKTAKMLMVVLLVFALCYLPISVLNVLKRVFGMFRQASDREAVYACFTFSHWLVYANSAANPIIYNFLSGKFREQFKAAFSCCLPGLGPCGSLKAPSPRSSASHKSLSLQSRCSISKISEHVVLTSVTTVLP
Procedure: Generation of CHO stable cell lines expressing the human OX1R and OX2R. Stable cell lines for the human OX1R and OX2R receptors were generated through the transfection of CHO cells using the transfection reagent Genejuice (Novagen number 70967) and cDNA coding for either the human OX1R or OX2R. Cells were cultured in Sigma Nutrient Mixture F-12 Ham media (catalog number N6658) supplemented with 10% heat-inactivated FBS. Forty-eight hours after transfection, cells were harvested and placed under geneticin selection by culturing in Sigma Nutrient Mixture F-12 Ham media supplemented with 10% heat-inactivated FBS and geneticin (ThermoFisher Catalog number: 10131035). Selection of the final stable clone for each receptor was made on the basis of receptor expression, assay signal to noise and robustness though increasing passage. Selected clones for the human OX1R and OX2R were then frozen down into liquid nitrogen using Cell Freezing Medium-DMSO (Sigma-Aldrich catalog number: C6164). IPone accumulation assay. A CHO cell line stably expressing either human OX1 or OX2 receptor was used with the IPone HTRF assay kit (CisBio: Part #62[…]) to measure receptor activation. The assay was optimised to measure the ability (potency; fpKb) of antagonists to reduce agonist (orexin A)-induced inositol phosphate turnover. Briefly, cells were plated onto half area 96-well white walled plates at a density of 12,500 cells/well. Sixteen hours post-plating cell growth media was replaced with antagonist concentration-response curve diluted in stimulation buffer (supplied with the kit). Cells were incubated in a humidified incubator (37° C.) for 30 min before an EC80 challenge concentration ( 20 nM (OX1) and 40 nM (OX2)) of orexin A (Tocris catalogue number 1455). After 30 min stimulation in a humidified incubator (37° C.) the assay was terminated by the addition of detection mixture as per manufacturer's instructions. The concentration of compound which reduced orexin-A stimulated turnover of inositol phosphates by 50% (IC50) was calculated by fitting to a four parameter sigmoidal dose response curve. The IC50 values were converted to fpKB values using the orexin A pEC50 value estimated on each plate as well as the challenge concentration interpolated from the orexin A control curve.

[2] = molecular target: T2, human OX2 receptor (Homo sapiens, UniProt O43614); assay: IPone accumulation assay, CHO cells expressing OX2 (antagonism of orexin A); type: cell-based; details: CHO human OX2, orexin A EC80 challenge (40 nM), read-out: fpKb average OX2 (converted)
T2 sequence (O43614 1-444): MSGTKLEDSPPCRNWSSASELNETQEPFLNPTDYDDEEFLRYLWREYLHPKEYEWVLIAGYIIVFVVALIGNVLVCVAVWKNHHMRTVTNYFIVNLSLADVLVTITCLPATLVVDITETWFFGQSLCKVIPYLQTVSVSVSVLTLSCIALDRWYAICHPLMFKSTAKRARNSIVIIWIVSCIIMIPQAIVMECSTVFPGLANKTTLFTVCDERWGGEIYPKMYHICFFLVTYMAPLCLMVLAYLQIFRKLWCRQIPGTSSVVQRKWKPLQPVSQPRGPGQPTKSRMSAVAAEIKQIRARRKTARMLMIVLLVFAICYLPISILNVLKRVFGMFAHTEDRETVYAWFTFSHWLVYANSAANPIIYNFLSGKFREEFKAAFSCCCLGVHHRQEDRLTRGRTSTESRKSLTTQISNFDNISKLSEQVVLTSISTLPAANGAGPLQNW
Procedure: Generation of CHO stable cell lines expressing the human OX1R and OX2R. Stable cell lines for the human OX1R and OX2R receptors were generated through the transfection of CHO cells using the transfection reagent Genejuice (Novagen number 70967) and cDNA coding for either the human OX1R or OX2R. Cells were cultured in Sigma Nutrient Mixture F-12 Ham media (catalog number N6658) supplemented with 10% heat-inactivated FBS. Forty-eight hours after transfection, cells were harvested and placed under geneticin selection by culturing in Sigma Nutrient Mixture F-12 Ham media supplemented with 10% heat-inactivated FBS and geneticin (ThermoFisher Catalog number: 10131035). Selection of the final stable clone for each receptor was made on the basis of receptor expression, assay signal to noise and robustness though increasing passage. Selected clones for the human OX1R and OX2R were then frozen down into liquid nitrogen using Cell Freezing Medium-DMSO (Sigma-Aldrich catalog number: C6164).
IPone accumulation assay. A CHO cell line stably expressing either human OX1 or OX2 receptor was used with the IPone HTRF assay kit (CisBio: Part #62IPAPEJ) to measure receptor activation. The assay was optimised to measure the ability (potency; fpKb) of antagonists to reduce agonist (orexin A)-induced inositol phosphate turnover. Briefly, cells were plated onto half area 96-well white walled plates at a density of 12,500 cells/well. Sixteen hours post-plating cell growth media was replaced with antagonist concentration-response curve diluted in stimulation buffer (supplied with the kit). Cells were incubated in a humidified incubator (37° C.) for 30 min before an EC80 challenge concentration (˜20 nM (OX1) and 40 nM (OX2)) of orexin A (Tocris catalogue number 1455). After 30 min stimulation in a humidified incubator (37° C.) the assay was terminated by the addition of detection mixture as per manufacturer's instructions. The concentration of compound which reduced orexin-A stimulated turnover of inositol phosphates by 50% (IC50) was calculated by fitting to a four parameter sigmoidal dose response curve. The IC50 values were converted to fpKB values using the orexin A pEC50 value estimated on each plate as well as the challenge concentration interpolated from the orexin A control curve.

| Kb [1] [nM] | Kb [2] [nM] | SMILES |
| --- | --- | --- |
| 12.6 | > 1000 | COc1ncc(C2CCc3c(F)cccc3N(Cc3c(F)cc(Br)cc3F)C2=O)cc1C(C)(F)F (single isomer, unassigned) [Example 12, 1-(4-bromo-2,6-difluorobenzyl)-3-[5-(1,1-difluoroethyl)-6-methoxypyridin-3-yl]-6-fluoro-1,3,4,5-tetrahydro-2H-1-benzazepin-2-one] |
| 20 | > 2000 | Cc1ncc(C2CCc3c(F)cccc3N(Cc3c(F)cc(Br)cc3F)C2=O)cc1C(C)(F)F (single isomer, unassigned) [Example 36, 1-(4-bromo-2,6-difluorobenzyl)-3-[5-(1,1-difluoroethyl)-6-methylpyridin-3-yl]-6-fluoro-1,3,4,5-tetrahydro-2H-1-benzazepin-2-one] |
| 158 | > 3160 | Cc1ccc(N2CCc3c(F)cccc3N(Cc3c(F)cc(Br)cc3F)C2=O)cc1C(C)(F)F [Example 1, 1-(4-bromo-2,6-difluorobenzyl)-3-[3-(1,1-difluoroethyl)-4-methylphenyl]-6-fluoro-1,3,4,5-tetrahydro-2H-1,3-benzodiazepin-2-one] |
| 20 | > 3980 | [2H]C([2H])([2H])Oc1ncc(N2CCc3c(F)cccc3N(Cc3c(F)cc(Br)cc3F)C2=O)cc1C(C)(F)F [Example 2, 1-(4-bromo-2,6-difluorobenzyl)-3-{5-(1,1-difluoroethyl)-6-[(^2H3)methyloxy]pyridin-3-yl}-6-fluoro-1,3,4,5-tetrahydro-2H-1,3-benzodiazepin-2-one] |
| 50.1 | > 794 | COc1ncc(N2CCc3c(F)cccc3N(Cc3c(F)cc(Br)cc3F)C2=O)cc1C(C)(F)F [Example 3, 1-(4-bromo-2,6-difluorobenzyl)-3-[5-(1,1-difluoroethyl)-6-methoxypyridin-3-yl]-6-fluoro-1,3,4,5-tetrahydro-2H-1,3-benzodiazepin-2-one] |
| 15.8 | > 3980 | COc1ccc(CN2C(=O)N(c3cnc(OC)c(C(C)(F)F)c3)CCc3c(F)cccc32)c(F)c1 [Example 4, 3-[5-(1,1-difluoroethyl)-6-methoxypyridin-3-yl]-6-fluoro-1-(2-fluoro-4-methoxybenzyl)-1,3,4,5-tetrahydro-2H-1,3-benzodiazepin-2-one] |
| 1.58 | > 2000 | [2H]C([2H])([2H])OCc1cc(F)c(CN2C(=O)N(c3cnc(OC)c(C(C)(F)F)c3)CCc3c(F)cccc32)c(F)c1 [Example 5, 3-[5-(1,1-difluoroethyl)-6-methoxypyridin-3-yl]-1-(2,6-difluoro-4-{[(^2H3)methyloxy]methyl}benzyl)-6-fluoro-1,3,4,5-tetrahydro-2H-1,3-benzodiazepin-2-one] |
| 10 | 398 | [2H]C([2H])([2H])Oc1cc(F)c(CN2C(=O)N(c3cnc(OC)c(C(C)(F)F)c3)CCc3c(F)cccc32)c(F)c1 [Example 6, 3-[5-(1,1-difluoroethyl)-6-methoxypyridin-3-yl]-1-{2,6-difluoro-4-[(^2H3)methyloxy]benzyl}-6-fluoro-1,3,4,5-tetrahydro-2H-1,3-benzodiazepin-2-one] |

Further lines, the compound ahead of its results:

| SMILES | Kb [1] [nM] | Kb [2] [nM] |
| --- | --- | --- |
| COc1ncc(C2CCc3c(F)cccc3N(Cc3c(F)cc(Br)cc3F)C2=O)cc1S(C)(=O)=O (racemic) [Example 19, 1-(4-bromo-2,6-difluorobenzyl)-6-fluoro-3-[6-methoxy-5-(methylsulfonyl)pyridin-3-yl]-1,3,4,5-tetrahydro-2H-1-benzazepin-2-one] | 31.6 | > 3160 |
| COc1ncc(C2CCc3c(F)cccc3N(Cc3cc(C#N)ccc3F)C2=O)cc1C(C)(F)F (single isomer, unassigned) [Example 13, 3-({3-[5-(1,1-difluoroethyl)-6-methoxypyridin-3-yl]-6-fluoro-2-oxo-2,3,4,5-tetrahydro-1H-1-benzazepin-1-yl}methyl)-4-fluorobenzonitrile] | 50.1 | > 794 |
| COc1ncc(C2CCc3c(F)cccc3N(Cc3c(F)cc(Br)cc3F)C2=O)cc1S(C)(=O)=O (single isomer, unassigned) [Example 21, 1-(4-bromo-2,6-difluorobenzyl)-6-fluoro-3-[6-methoxy-5-(methylsulfonyl)pyridin-3-yl]-1,3,4,5-tetrahydro-2H-1-benzazepin-2-one] | 10 | > 1580 |
| COc1ncc(C2CCc3c(F)cccc3N(Cc3c(F)cc(Cl)cc3F)C2=O)cc1S(C)(=O)=O (single isomer, unassigned) [Example 22, 1-(4-chloro-2,6-difluorobenzyl)-6-fluoro-3-[6-methoxy-5-(methylsulfonyl)pyridin-3-yl]-1,3,4,5-tetrahydro-2H-1-benzazepin-2-one] | 10 | > 1000 |
| Cc1ncc(C2CCc3c(F)cccc3N(Cc3c(F)cc(Br)cc3F)C2=O)cc1C(C)(F)F (single isomer, unassigned) [Example 35, 1-(4-bromo-2,6-difluorobenzyl)-3-[5-(1,1-difluoroethyl)-6-methylpyridin-3-yl]-6-fluoro-1,3,4,5-tetrahydro-2H-1-benzazepin-2-one] | 63.1 | > 2510 |
| Cc1ncc(C2CCc3c(F)cccc3N(Cc3c(F)cc(Br)cc3F)C2=O)cc1S(C)(=O)=O (single isomer, unassigned) [Example 38, 1-(4-bromo-2,6-difluorobenzyl)-6-fluoro-3-[6-methyl-5-(methylsulfonyl)pyridin-3-yl]-1,3,4,5-tetrahydro-2H-1-benzazepin-2-one] | 20 | > 398 |
| Cc1ncc(C2CCc3c(F)cccc3N(Cc3c(F)cc(Br)cc3F)C2=O)cc1S(C)(=O)=O (single isomer, unassigned) [Example 39, 1-(4-bromo-2,6-difluorobenzyl)-6-fluoro-3-[6-methyl-5-(methylsulfonyl)pyridin-3-yl]-1,3,4,5-tetrahydro-2H-1-benzazepin-2-one] | 31.6 | > 2510 |
